Source: patent US20070117743A1, “New antitumoral compounds” (priority 2003, published 2007)
Where two headings read alike, the source gives them in different places.

Experiments:
Format in all cases: cell-based, human
LoVo-Dox = assay: SRB colorimetric assay of cell growth and viability, LoVo-Dox; conditions: 48 hours exposure; for CC50: read-out: LC50 LOVO-DOX
Summary of the method: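 Continuous 48-hour exposure of cells plated at 5×10^3 per well, with compounds diluted in DMSO:EtOH:PBS (0.5:0.5:99) over 10 to 10^−8 μg/mL. Staining with SRB and reading at 490 nm give GI, TGI and LC.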

LNCaP = assay: SRB colorimetric assay of cell growth and viability, LNCaP; conditions: 48 hours exposure; for CC50: read-out: LC50 LN-caP
A-549 = assay: SRB colorimetric assay of cell growth and viability, A-549; conditions: 48 hours exposure; for GI50: read-out: GI50 A-549; for CC50: read-out: LC50 A-549
IGROV-ET = assay: SRB colorimetric assay of cell growth and viability, IGROV-ET; conditions: 48 hours exposure; for CC50: read-out: LC50 IGROV-ET
K-562 = assay: SRB colorimetric assay of cell growth and viability, K-562; conditions: 48 hours exposure; for CC50: read-out: LC50 K-562
SK-MEL-28 = assay: SRB colorimetric assay of cell growth and viability, SK-MEL-28; conditions: 48 hours exposure; for CC50: read-out: LC50 MEL-28
HT-29 = assay: SRB colorimetric assay of cell growth and viability, HT-29; conditions: 48 hours exposure; for GI50: read-out: GI50 HT-29; for CC50: read-out: LC50 HT-29
LoVo = assay: SRB colorimetric assay of cell growth and viability, LoVo; conditions: 48 hours exposure; for CC50: read-out: LC50 LOVO
PANC-1 = assay: SRB colorimetric assay of cell growth and viability, PANC-1; conditions: 48 hours exposure; for CC50: read-out: LC50 PANC-1
DU-145 = assay: SRB colorimetric assay of cell growth and viability, DU-145; conditions: 48 hours exposure
SK-BR-3 = assay: SRB colorimetric assay of cell growth and viability, SK-BR-3; conditions: 48 hours exposure
IGROV-1 = assay: SRB colorimetric assay of cell growth and viability, IGROV-1; conditions: 48 hours exposure
HeLa-APL = assay: SRB colorimetric assay of cell growth and viability, HeLa-APL; conditions: 48 hours exposure; for CC50: read-out: LC50 HELA-APL
HeLa = assay: SRB colorimetric assay of cell growth and viability, HeLa; conditions: 48 hours exposure; for CC50: read-out: LC50 HELA

C/C=C1\NC(=O)[C@H](Cc2ccccc2Cl)NC(=O)[C@@H](C(C)C)NC(=O)[C@@H]([C@@H](C)CC)NC(=O)[C@H](NC(=O)[C@H](NC(=O)[C@H](CCCN)NC(=O)[C@H]2CCCN2C(=O)[C@H](NC(=O)[C@@H](NC(=O)[C@@H](NC(=O)[C@H](NC(=O)CCCC(C)C)C(C)C)[C@@H](C)O)C(C)C)C(C)C)[C@@H](C)CC)[C@@H](C)OC(=O)[C@H](C(C)C)NC1=O [Compound 81, [Phe(2-Cl)^3]-KF]
GI50 (LoVo-Dox; LOVO-DOX): 70.1 nM | TGI LOVO-DOX (LoVo-Dox; LOVO-DOX): 1.20E−07 Molar | CC50 (LoVo-Dox; LOVO-DOX): 369 nM | GI50 (LNCaP; LN-caP): 75.6 nM | TGI LN-caP (LNCaP; LN-caP): 3.87E−07 Molar | CC50 (LNCaP; LN-caP): 1270 nM | TGI A-549 (A-549; A-549): 9.04E−07 Molar | GI50 (A-549; A-549): 457 nM | CC50 (A-549; A-549): 1570 nM | GI50 (IGROV-ET; IGROV-ET): 100 nM | TGI IGROV-ET (IGROV-ET; IGROV-ET): 2.40E−07 Molar | CC50 (IGROV-ET; IGROV-ET): 639 nM | GI50 (K-562; K-562): 1840 nM | TGI K-562 (K-562; K-562): 1.84E−06 Molar | CC50 (K-562; K-562): 1840 nM | GI50 (SK-MEL-28; MEL-28): 362 nM | TGI MEL-28 (SK-MEL-28; MEL-28): 8.73E−07 Molar | CC50 (SK-MEL-28; MEL-28): 1680 nM | TGI HT-29 (HT-29; HT-29): 2.23E−07 Molar | GI50 (HT-29; HT-29): 102 nM | CC50 (HT-29; HT-29): 543 nM | GI50 (LoVo; LOVO): 89.2 nM | TGI LOVO (LoVo; LOVO): 1.72E−07 Molar | CC50 (LoVo; LOVO): 445 nM | GI50 (PANC-1; PANC-1): 1400 nM | TGI PANC-1 (PANC-1; PANC-1): 1.84E−06 Molar | CC50 (PANC-1; PANC-1): 1840 nM | GI50 (DU-145; DU-145): 242 nM | LC50 (concentration causing 50% net cell kill) (DU-145; DU-145): 1210 nM | TGI DU-145 (DU-145; DU-145): 6.83E−07 Molar | GI50 (SK-BR-3; SK-BR-3): 61.2 nM | LC50 (SK-BR-3; SK-BR-3): 664 nM | TGI SK-BR-3 (SK-BR-3; SK-BR-3): 1.18E−07 Molar | GI50 (IGROV-1; IGROV): 86.7 nM | LC50 (concentration causing 50% net cell killing) (IGROV-1; IGROV): 596 nM | TGI IGROV (IGROV-1; IGROV): 2.09E−07 Molar | GI50 (HeLa-APL; HELA-APL): 342 nM | TGI HELA-APL (HeLa-APL; HELA-APL): 7.87E−07 Molar | CC50 (HeLa-APL; HELA-APL): 1840 nM | GI50 (HeLa; HELA): 199 nM | TGI HELA (HeLa; HELA): 6.33E−07 Molar | CC50 (HeLa; HELA): 1440 nM

C/C=C1\NC(=O)[C@H](Cc2ccccc2)NC(=O)[C@@H](C(C)C)NC(=O)[C@@H]([C@@H](C)CC)NC(=O)[C@H](NC(=O)[C@H](NC(=O)[C@H](CCCN)NC(=O)[C@H]2CCCN2C(=O)[C@H](NC(=O)[C@@H](NC(=O)[C@@H](NC(=O)[C@H](NC(=O)CC[C@@H](C)CC)C(C)C)[C@@H](C)OC(=O)C(F)(F)F)C(C)C)C(C)C)[C@@H](C)CC)[C@@H](C)OC(=O)[C@H](C(C)C)NC1=O [Compound 94, [Thr(OTfa)^12, 4(S)MeHex^14]-Kahalalide F]
GI50 (LoVo-Dox; SRB): 162 nM | TGI LOVO-DOX (LoVo-Dox; SRB): 3.55E−07 Molar | CC50 (LoVo-Dox; SRB): 1320 nM | TGI LN-caP (LNCaP; SRB): 4.92E−06 Molar | GI50 (LNCaP; SRB, read-out: GI50 LN-caP): 1650 nM | CC50 (LNCaP; SRB): 6350 nM | TGI A-549 (A-549; SRB): 2.28E−06 Molar | GI50 (A-549; SRB): 1120 nM | CC50 (A-549; SRB): 4660 nM | GI50 (IGROV-ET; SRB): 208 nM | TGI IGROV-ET (IGROV-ET; SRB): 4.00E−07 Molar | CC50 (IGROV-ET; SRB): 1580 nM | GI50 (K-562; SRB): 1840 nM | TGI K-562 (K-562; SRB): 3.75E−06 Molar | CC50 (K-562; SRB): 6350 nM | GI50 (SK-MEL-28; SRB): 743 nM | TGI MEL-28 (SK-MEL-28; SRB): 1.50E−06 Molar | CC50 (SK-MEL-28; SRB): 3010 nM | TGI HT-29 (HT-29; SRB): 3.43E−07 Molar | GI50 (HT-29; SRB): 163 nM | CC50 (HT-29; SRB): 1140 nM | GI50 (LoVo; SRB): 168 nM | TGI LOVO (LoVo; SRB): 3.26E−07 Molar | CC50 (LoVo; SRB): 632 nM | GI50 (PANC-1; SRB): 2860 nM | TGI PANC-1 (PANC-1; SRB): 6.35E−06 Molar | CC50 (PANC-1; SRB): 6350 nM | GI50 (DU-145; SRB): 718 nM | LC50 (concentration causing 50% net cell kill) (DU-145; SRB): 3180 nM | TGI DU-145 (DU-145; SRB): 1.51E−06 Molar | GI50 (SK-BR-3; SRB): 226 nM | LC50 (SK-BR-3; SRB): 625 nM | TGI SK-BR-3 (SK-BR-3; SRB): 3.75E−07 Molar | GI50 (IGROV-1; SRB): 313 nM | LC50 (concentration causing 50% net cell killing) (IGROV-1; SRB): 3050 nM | TGI IGROV (IGROV-1; SRB): 6.11E−07 Molar | GI50 (HeLa-APL; SRB): 693 nM | TGI HELA-APL (HeLa-APL; SRB): 1.65E−06 Molar | CC50 (HeLa-APL; SRB): 3920 nM | GI50 (HeLa; SRB): 413 nM | TGI HELA (HeLa; SRB): 1.16E−06 Molar | CC50 (HeLa; SRB): 3020 nM

C/C=C1\NC(=O)[C@H](Cc2ccccc2)NC(=O)[C@@H](C(C)C)NC(=O)[C@@H]([C@@H](C)CC)NC(=O)[C@H](NC(=O)[C@H](NC(=O)[C@H](CCCNC(=O)C(F)(F)F)NC(=O)[C@H]2CCCN2C(=O)[C@H](NC(=O)[C@@H](NC(=O)[C@@H](NC(=O)[C@H](NC(=O)CC[C@@H](C)CC)C(C)C)[C@@H](C)OC(=O)C(F)(F)F)C(C)C)C(C)C)[C@@H](C)CC)[C@@H](C)OC(=O)[C@H](C(C)C)NC1=O [Compound 95, [Orn(N^δTfa)^8,Thr(OTfa)^12, 4(S)MeHex^14]-Kahalalide F]
GI50 (LoVo-Dox; SRB): 124 nM | TGI LOVO-DOX (LoVo-Dox; SRB): 2.41E−07 Molar | CC50 (LoVo-Dox; SRB): 471 nM | TGI LN-caP (LNCaP; SRB): 5.99E−06 Molar | GI50 (LNCaP; SRB, read-out: GI50 LN-caP): 1700 nM | CC50 (LNCaP; SRB): 5990 nM | TGI A-549 (A-549; SRB): 2.29E−06 Molar | GI50 (A-549; SRB): 1150 nM | CC50 (A-549; SRB): 4550 nM | GI50 (IGROV-ET; SRB): 219 nM | TGI IGROV-ET (IGROV-ET; SRB): 3.77E−07 Molar | CC50 (IGROV-ET; SRB): 916 nM | GI50 (K-562; SRB): 3570 nM | TGI K-562 (K-562; SRB): 5.99E−06 Molar | CC50 (K-562; SRB): 5990 nM | GI50 (SK-MEL-28; SRB): 1030 nM | TGI MEL-28 (SK-MEL-28; SRB): 1.84E−06 Molar | CC50 (SK-MEL-28; SRB): 3280 nM | TGI HT-29 (HT-29; SRB): 1.93E−07 Molar | GI50 (HT-29; SRB): 86.2 nM | CC50 (HT-29; SRB): 432 nM | GI50 (LoVo; SRB): 125 nM | TGI LOVO (LoVo; SRB): 2.34E−07 Molar | CC50 (LoVo; SRB): 437 nM | GI50 (PANC-1; SRB): 3580 nM | TGI PANC-1 (PANC-1; SRB): 5.99E−06 Molar | CC50 (PANC-1; SRB): 5990 nM | GI50 (DU-145; SRB): 892 nM | LC50 (concentration causing 50% net cell kill) (DU-145; SRB): 3360 nM | TGI DU-145 (DU-145; SRB): 1.73E−06 Molar | GI50 (SK-BR-3; SRB): 73.1 nM | LC50 (SK-BR-3; SRB): 520 nM | TGI SK-BR-3 (SK-BR-3; SRB): 1.95E−07 Molar | GI50 (IGROV-1; SRB): 178 nM | LC50 (concentration causing 50% net cell killing) (IGROV-1; SRB): 550 nM | TGI IGROV (IGROV-1; SRB): 3.13E−07 Molar | GI50 (HeLa-APL; SRB): 617 nM | TGI HELA-APL (HeLa-APL; SRB): 1.52E−06 Molar | CC50 (HeLa-APL; SRB): 3740 nM | GI50 (HeLa; SRB): 162 nM | TGI HELA (HeLa; SRB): 3.06E−07 Molar | CC50 (HeLa; SRB): 579 nM
